These are literature values, as cited in publication PMC6277767, “Broad and Region-Specific Impacts of the Synthetic Cannabinoid CP 55,940 in Adolescent and Adult Female Mouse Brains” (Frontiers in Molecular Neuroscience, 2018).

Each structure is given as a SMILES string.

Data set [1] deals with BV-2 microglial cells. Further details: method as in Rimmerman et al., 2012. Particulars: ref Rimmerman et al., 2012; cited from earlier work.
Data set [2] deals with human peripheral blood mononuclear cells. Further details: method as in Bileck et al., 2016. Particulars: 10 μM for 3 h; ref Bileck et al., 2016; cited from earlier work.
Data set [3] relates to DAGLα. Set-up: method as in Ogasawara et al., 2016. Particulars: reductions measured at 2 h and 4 h post-injection; ref Ogasawara et al., 2016; cited from earlier work.
Data set [4] has as its system CB2. Set-up: method as in Felder et al., 1995. Particulars: ref Felder et al., 1995; read-out: IC50, inhibition of adenylate cyclase at CB2; cited from earlier work.
The subject of data set [5] is CB1. Further details: method as in Felder et al., 1995. Particulars: ref Felder et al., 1995; read-out: IC50, inhibition of adenylate cyclase at CB1; cited from earlier work.
Details of data set [6]: method as in Leishman et al., 2018. Particulars: acute exposure, all age groups; ref Leishman et al., 2018; cited from earlier work.
Data set [7] has as its system CB1. The conditions noted are these: ref Brents et al., 2011; read-out: EC50, stimulated G-protein binding at CB1; cited from earlier work.

As to `C=C(C)[C@@H]1CCC(C)=C[C@H]1c1c(O)cc(CCCCC)cc1O` [CBD, cannabidiol], the “levels of AEA” value in data set [1] is given as “increased”.
Regarding `CCCCCCCC(C)(C)c1ccc([C@H]2CCC[C@@H](O)C2)c(O)c1` [CP 47,497-C8], in data set [2], the “expression of 5-LOX compared to vehicle” value was 26 fold and the “expression of fatty acid synthase” value is given as “over twofold”.
`C#CCO[C@@H]1CC[C@H](Cc2ccccc2)N(C(=O)n2ncc(C(O)(c3ccc(F)cc3)c3ccc(F)cc3)n2)C1` [DH376]: the “time for reduced 2-AG, AA and AEA levels to return to baseline” value in data set [3] is at most 8 h.
Regarding `CCCCCc1cc(O)c2c(c1)OC(C)(C)[C@@H]1CCC(C)=C[C@@H]21` [THC, Δ^9-tetrahydrocannabinol], the IC50 in data set [4] was 41.8 nM; in data set [5], […]. Also, the “brain area with highest THC levels” value in data set [6] was “HIPP”. Besides, the concentration giving a half-maximal response (EC50) in data set [7] was […].

Broadly, the IC50 is the concentration that gives 50% inhibition. In general, EC50 refers to the concentration needed to bring the measured effect to its halfway point.
